ChEMBL document CHEMBL1909046, “DrugMatrix in vitro pharmacology data”

Tests used:
[1] = target: T1, Alpha-1D adrenergic receptor (Homo sapiens, UniProt P25100); assay type: cell membranes, HEK293, Membrane; settings: hek293; further: in other assays of this panel Not Active means under 50% inhibition at 10 µM
T1 sequence (P25100 whole entry): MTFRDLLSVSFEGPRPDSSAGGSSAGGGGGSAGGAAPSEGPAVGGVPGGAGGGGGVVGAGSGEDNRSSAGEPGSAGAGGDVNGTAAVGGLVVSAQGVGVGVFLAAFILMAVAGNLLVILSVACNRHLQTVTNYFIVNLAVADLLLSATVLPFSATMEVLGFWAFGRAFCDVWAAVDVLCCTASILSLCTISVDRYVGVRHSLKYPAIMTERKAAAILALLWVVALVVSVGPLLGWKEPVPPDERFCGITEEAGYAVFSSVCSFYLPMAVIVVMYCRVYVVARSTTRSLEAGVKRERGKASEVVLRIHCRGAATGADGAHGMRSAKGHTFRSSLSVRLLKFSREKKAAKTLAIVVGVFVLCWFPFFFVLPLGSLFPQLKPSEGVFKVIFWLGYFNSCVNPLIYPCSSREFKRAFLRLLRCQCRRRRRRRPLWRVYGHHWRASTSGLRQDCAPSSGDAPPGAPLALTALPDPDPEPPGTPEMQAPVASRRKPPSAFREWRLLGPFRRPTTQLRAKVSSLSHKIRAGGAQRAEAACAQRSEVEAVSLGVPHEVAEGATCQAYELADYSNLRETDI

[2] = DRUGMATRIX: Sigma2 radioligand binding (ligand: [3H] Ifenprodil); assay type: cell membranes, Rattus norvegicus, Wistar, Brain, Membrane; settings: Not Active = under 50% inhibition at 10 µM
Substance-K receptor = target: T2, Substance-K receptor (Homo sapiens, UniProt P21452); assay type: cell membranes, CHO, Membrane; settings: cho; further: in other assays of this panel Not Active means under 50% inhibition at 10 µM
T2 sequence (P21452 whole entry): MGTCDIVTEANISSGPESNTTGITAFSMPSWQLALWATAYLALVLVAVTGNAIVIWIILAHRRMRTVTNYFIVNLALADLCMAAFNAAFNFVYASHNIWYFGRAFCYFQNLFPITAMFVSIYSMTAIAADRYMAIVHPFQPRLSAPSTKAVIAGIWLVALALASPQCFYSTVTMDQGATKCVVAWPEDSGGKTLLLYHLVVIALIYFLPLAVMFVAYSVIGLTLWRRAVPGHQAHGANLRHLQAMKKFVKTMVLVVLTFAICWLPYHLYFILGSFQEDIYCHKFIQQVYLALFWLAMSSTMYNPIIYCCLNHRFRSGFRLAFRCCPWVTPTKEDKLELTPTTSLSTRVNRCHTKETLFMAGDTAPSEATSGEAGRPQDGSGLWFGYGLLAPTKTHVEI

Cannabinoid receptor 1 = Cannabinoid receptor 1 (Homo sapiens, UniProt P21554); assay type: cell membranes, Membrane; settings: chem-1; further: in other assays of this panel Not Active means under 50% inhibition at 10 µM
Chain of Cannabinoid receptor 1 (P21554 whole entry): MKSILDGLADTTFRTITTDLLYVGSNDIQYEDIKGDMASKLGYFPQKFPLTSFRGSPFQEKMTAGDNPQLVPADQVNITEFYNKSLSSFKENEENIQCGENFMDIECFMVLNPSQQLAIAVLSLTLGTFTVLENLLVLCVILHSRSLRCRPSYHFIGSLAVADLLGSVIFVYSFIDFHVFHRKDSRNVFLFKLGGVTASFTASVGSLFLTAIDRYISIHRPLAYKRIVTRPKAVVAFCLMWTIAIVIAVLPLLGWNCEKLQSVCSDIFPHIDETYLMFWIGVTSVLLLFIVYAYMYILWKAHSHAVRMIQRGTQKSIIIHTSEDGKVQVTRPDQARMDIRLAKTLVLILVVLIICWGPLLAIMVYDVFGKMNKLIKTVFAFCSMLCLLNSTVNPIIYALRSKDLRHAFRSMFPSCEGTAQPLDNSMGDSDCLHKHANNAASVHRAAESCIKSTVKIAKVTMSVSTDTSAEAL

Carbonic anhydrase 2 = Carbonic anhydrase 2 (Homo sapiens, UniProt P00918); experiment: DRUGMATRIX: Carbonic Anhydrase II enzyme inhibition (substrate: 4-Nitrophenyl acetate (4-NPA)); assay type: tissue-based, Erythrocyte; settings: erythrocyte; Not Active = under 50% inhibition at 10 µM
[3] = DRUGMATRIX: GABAA, Muscimol, Central radioligand binding (ligand: [3H] Muscimol); assay type: cell membranes, Rattus norvegicus, Wistar, Brain, Membrane; settings: Not Active = under 50% inhibition at 10 µM
Leukotriene C4 synthase = target: T3, Leukotriene C4 synthase (Cavia porcellus, UniProt A6XA80); experiment: biochemical; assay type: tissue-based, Lung;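 further: enzyme inhibition assay of leukotriene C4 synthase, using LTA4 as the substrate; in other assays of this panel Not Active means under 50% inhibition at 10 µM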
T3 sequence (A6XA80 whole entry): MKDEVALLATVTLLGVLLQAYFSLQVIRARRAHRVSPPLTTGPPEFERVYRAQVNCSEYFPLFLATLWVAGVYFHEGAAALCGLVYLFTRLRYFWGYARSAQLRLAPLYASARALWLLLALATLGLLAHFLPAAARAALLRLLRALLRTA

[4] = target: Mitogen-activated protein kinase 14 (Homo sapiens, UniProt Q16539); parameters: species or system Escherichia coli
Chain of Mitogen-activated protein kinase 14 (Q16539 whole entry): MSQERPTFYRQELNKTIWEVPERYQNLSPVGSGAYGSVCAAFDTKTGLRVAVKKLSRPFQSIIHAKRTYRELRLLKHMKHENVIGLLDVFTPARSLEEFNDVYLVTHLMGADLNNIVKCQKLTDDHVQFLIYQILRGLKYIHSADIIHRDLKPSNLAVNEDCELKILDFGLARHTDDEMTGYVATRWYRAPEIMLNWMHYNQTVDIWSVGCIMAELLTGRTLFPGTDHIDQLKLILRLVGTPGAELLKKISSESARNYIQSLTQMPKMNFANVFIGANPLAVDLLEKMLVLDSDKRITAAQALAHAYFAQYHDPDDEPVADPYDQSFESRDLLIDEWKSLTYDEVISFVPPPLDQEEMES

[5] = target: Tyrosine-protein kinase Fyn (Homo sapiens, UniProt P06241); experiment: biochemical; assay type: cell-based, Insect cells; settings: insect cells
Chain of Tyrosine-protein kinase Fyn (P06241 whole entry): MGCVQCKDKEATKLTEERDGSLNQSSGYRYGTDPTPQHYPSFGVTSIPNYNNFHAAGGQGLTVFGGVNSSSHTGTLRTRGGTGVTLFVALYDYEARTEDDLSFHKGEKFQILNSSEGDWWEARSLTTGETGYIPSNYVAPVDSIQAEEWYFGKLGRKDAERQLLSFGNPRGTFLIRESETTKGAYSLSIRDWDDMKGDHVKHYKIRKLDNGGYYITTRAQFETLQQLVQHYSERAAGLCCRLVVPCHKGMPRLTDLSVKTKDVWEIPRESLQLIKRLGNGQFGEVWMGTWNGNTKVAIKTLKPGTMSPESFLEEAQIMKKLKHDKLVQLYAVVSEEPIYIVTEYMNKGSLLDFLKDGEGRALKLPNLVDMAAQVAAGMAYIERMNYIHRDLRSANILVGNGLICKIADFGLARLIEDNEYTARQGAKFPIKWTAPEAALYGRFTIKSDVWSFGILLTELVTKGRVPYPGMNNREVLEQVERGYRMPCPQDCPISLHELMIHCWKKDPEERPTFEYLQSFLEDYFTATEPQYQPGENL

Acetylcholinesterase = Acetylcholinesterase (Homo sapiens, UniProt P22303); experiment: DRUGMATRIX: Acetylcholinesterase enzyme inhibition (substrate: acetylthiocholine); assay type: cell-based, HEK293; settings: hek293; Not Active = under 50% inhibition at 10 µM
Chain of Acetylcholinesterase (P22303 whole entry): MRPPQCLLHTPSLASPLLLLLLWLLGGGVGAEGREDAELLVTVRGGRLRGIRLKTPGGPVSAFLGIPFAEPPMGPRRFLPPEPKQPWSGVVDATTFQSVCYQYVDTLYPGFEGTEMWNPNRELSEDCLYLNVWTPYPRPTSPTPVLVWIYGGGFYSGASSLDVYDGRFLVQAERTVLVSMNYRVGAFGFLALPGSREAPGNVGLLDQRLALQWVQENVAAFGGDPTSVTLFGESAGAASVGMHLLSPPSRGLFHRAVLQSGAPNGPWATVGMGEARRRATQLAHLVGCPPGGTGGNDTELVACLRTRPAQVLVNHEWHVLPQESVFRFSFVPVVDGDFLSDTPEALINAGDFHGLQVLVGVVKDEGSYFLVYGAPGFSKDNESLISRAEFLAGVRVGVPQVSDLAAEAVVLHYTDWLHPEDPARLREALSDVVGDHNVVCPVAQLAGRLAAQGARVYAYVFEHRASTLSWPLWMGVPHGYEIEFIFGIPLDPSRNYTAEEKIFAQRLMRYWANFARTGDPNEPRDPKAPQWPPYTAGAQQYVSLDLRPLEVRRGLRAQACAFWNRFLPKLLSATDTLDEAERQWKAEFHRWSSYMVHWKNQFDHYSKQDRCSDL

Adenosine receptor A3 = target: T4, Adenosine receptor A3 (Homo sapiens, UniProt P0DMS8); assay type: cell membranes, CHO-K1, Membrane; settings: cho-k1
T4 sequence (P0DMS8 whole entry): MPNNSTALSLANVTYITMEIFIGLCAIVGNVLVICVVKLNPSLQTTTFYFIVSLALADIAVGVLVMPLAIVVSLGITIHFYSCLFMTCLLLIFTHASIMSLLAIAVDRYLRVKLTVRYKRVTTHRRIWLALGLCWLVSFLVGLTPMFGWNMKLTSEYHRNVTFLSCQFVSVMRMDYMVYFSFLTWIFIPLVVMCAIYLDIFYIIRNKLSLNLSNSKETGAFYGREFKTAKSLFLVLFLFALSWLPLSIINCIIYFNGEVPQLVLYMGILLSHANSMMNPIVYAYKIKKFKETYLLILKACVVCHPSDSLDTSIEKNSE

Cytochrome P450 2A6 = target: T5, Cytochrome P450 2A6 (Homo sapiens, UniProt P11509); settings: bti-tn-5b1-4; further: in other assays of this panel Not Active means under 50% inhibition at 10 µM
T5 sequence (P11509 whole entry): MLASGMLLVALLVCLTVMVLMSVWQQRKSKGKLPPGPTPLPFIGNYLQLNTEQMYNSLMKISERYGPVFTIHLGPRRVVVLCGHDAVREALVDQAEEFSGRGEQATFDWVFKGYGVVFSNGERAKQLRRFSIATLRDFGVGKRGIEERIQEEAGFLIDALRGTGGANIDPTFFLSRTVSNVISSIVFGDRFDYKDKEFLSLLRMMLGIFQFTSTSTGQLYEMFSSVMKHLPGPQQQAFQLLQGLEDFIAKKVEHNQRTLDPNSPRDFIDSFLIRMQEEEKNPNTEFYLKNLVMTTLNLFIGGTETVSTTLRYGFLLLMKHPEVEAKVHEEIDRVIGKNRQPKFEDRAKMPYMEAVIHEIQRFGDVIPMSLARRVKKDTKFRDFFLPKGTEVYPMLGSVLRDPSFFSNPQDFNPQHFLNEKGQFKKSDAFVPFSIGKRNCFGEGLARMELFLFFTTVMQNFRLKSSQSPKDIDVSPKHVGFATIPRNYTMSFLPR

Cytochrome P450 2C9 = Cytochrome P450 2C9 (Homo sapiens, UniProt P11712); settings: bti-tn-5b1-4; further: in other assays of this panel Not Active means under 50% inhibition at 10 µM
Chain of Cytochrome P450 2C9 (P11712 whole entry): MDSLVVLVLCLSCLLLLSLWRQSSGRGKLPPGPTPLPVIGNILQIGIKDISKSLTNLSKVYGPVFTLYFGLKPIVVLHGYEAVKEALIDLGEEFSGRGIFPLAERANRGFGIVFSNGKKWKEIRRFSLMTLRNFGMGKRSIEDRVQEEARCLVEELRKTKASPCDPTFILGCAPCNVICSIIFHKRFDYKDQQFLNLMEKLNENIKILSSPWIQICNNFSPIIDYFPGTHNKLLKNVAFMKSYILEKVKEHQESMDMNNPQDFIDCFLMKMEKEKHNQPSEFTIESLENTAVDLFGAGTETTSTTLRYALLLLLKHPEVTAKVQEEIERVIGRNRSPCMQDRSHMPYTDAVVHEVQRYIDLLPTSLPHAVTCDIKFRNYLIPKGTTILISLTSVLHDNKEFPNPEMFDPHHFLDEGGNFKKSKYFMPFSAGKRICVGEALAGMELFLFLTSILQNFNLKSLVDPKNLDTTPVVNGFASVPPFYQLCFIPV

CC(=O)[C@@]1(O)CC[C@H]2[C@@H]3C[C@H](C)C4=CC(=O)C=C[C@]4(C)[C@@]3(F)[C@@H](O)C[C@@]21C [FLUOROMETHOLONE]
Not Active: IC50 [1] | IC50 [2] | Ki [2] | IC50 (Substance-K receptor) | IC50 (Cannabinoid receptor 1) | IC50 (Carbonic anhydrase 2) | IC50 [3] | Ki [3] | IC50 (Leukotriene C4 synthase) | IC50 [4] | IC50 [5] | IC50 (Acetylcholinesterase) | IC50 (Adenosine receptor A3) | IC50 (Cytochrome P450 2A6) | Ki (Cytochrome P450 2A6) | IC50 (Cytochrome P450 2C9) | Ki (Cytochrome P450 2C9)

O=c1[nH]cc(F)c(=O)[nH]1 [FLUOROURACIL]
Not Active: IC50 [1] | IC50 [2] | Ki [2] | IC50 (Substance-K receptor) | IC50 (Cannabinoid receptor 1) | IC50 (Carbonic anhydrase 2) | IC50 [3] | Ki [3] | IC50 (Leukotriene C4 synthase) | IC50 [4] | IC50 [5] | IC50 (Acetylcholinesterase) | IC50 (Adenosine receptor A3) | IC50 (Cytochrome P450 2A6) | Ki (Cytochrome P450 2A6) | IC50 (Cytochrome P450 2C9) | Ki (Cytochrome P450 2C9)

NCC1(CC(=O)O)CCCCC1 [GABAPENTIN]
Not Active: IC50 [1] | IC50 [2] | Ki [2] | IC50 (Substance-K receptor) | IC50 (Cannabinoid receptor 1) | IC50 (Carbonic anhydrase 2) | IC50 [3] | Ki [3] | IC50 (Leukotriene C4 synthase) | IC50 [4] | IC50 [5] | IC50 (Acetylcholinesterase) | IC50 (Adenosine receptor A3) | IC50 (Cytochrome P450 2A6) | Ki (Cytochrome P450 2A6) | IC50 (Cytochrome P450 2C9) | Ki (Cytochrome P450 2C9)

CC[N+](CC)(CC)CCOc1cccc(OCC[N+](CC)(CC)CC)c1OCC[N+](CC)(CC)CC.[I-].[I-].[I-] [GALLAMINE TRIETHIODIDE]
Not Active: IC50 [1] | IC50 [2] | Ki [2] | IC50 (Substance-K receptor) | IC50 (Cannabinoid receptor 1) | IC50 (Carbonic anhydrase 2) | IC50 [3] | Ki [3] | IC50 (Leukotriene C4 synthase) | IC50 [4] | IC50 [5] | IC50 (Acetylcholinesterase) | IC50 (Adenosine receptor A3) | IC50 (Cytochrome P450 2A6) | Ki (Cytochrome P450 2A6) | IC50 (Cytochrome P450 2C9) | Ki (Cytochrome P450 2C9)

Nc1nc2c(ncn2COC(CO)CO)c(=O)[nH]1 [GANCICLOVIR]
Not Active: IC50 [1] | IC50 [2] | Ki [2] | IC50 (Substance-K receptor) | IC50 (Cannabinoid receptor 1) | IC50 (Carbonic anhydrase 2) | IC50 [3] | Ki [3] | IC50 (Leukotriene C4 synthase) | IC50 [4] | IC50 [5] | IC50 (Acetylcholinesterase) | IC50 (Adenosine receptor A3) | IC50 (Cytochrome P450 2A6) | Ki (Cytochrome P450 2A6) | IC50 (Cytochrome P450 2C9) | Ki (Cytochrome P450 2C9)

COc1c(N2CCNC(C)C2)c(F)cc2c(=O)c(C(=O)O)cn(C3CC3)c12 (configuration not stated) [GATIFLOXACIN]
Not Active: IC50 [1] | IC50 [2] | Ki [2] | IC50 (Substance-K receptor) | IC50 (Cannabinoid receptor 1) | IC50 (Carbonic anhydrase 2) | IC50 [3] | Ki [3] | IC50 (Leukotriene C4 synthase) | IC50 [4] | IC50 [5] | IC50 (Acetylcholinesterase) | IC50 (Adenosine receptor A3) | IC50 (Cytochrome P450 2A6) | Ki (Cytochrome P450 2A6) | IC50 (Cytochrome P450 2C9) | Ki (Cytochrome P450 2C9)
